According to patent US20260207563A1, “UREA COMPOUNDS AS ACTIVATORS OF POTASSIUM CHANNELS KV7.2/7.3 USEFUL IN THE TREATMENT OF CNS AND PNS DISORDERS” (ANGELINI PHARMA S.P.A., priority 2022, published 2026):

Experiments:
Assay type in all cases: cell-based
[1] = target: T1, heteromeric KV7.2/KV7.3 channels (KCNQ2, KCNQ3) (Homo sapiens, UniProt O43525+O43526); assay: Automated patch-clamp (Sophion Qube 384) potency assay against KV7.2/KV7.3 channels; conditions: CHO-K1/Kv7.2/Kv7.3 cells; for EC50: EC50 from concentration-response of shift in Vhalf, 10 concentrations up to 30 μM, read-out: Kv7.2/7.3 EC50; for Kv7.2/7.3 ΔV1/2: maximal shift in the Vhalf from the top of the curve
T1 construct: expressed in transfected cells; host or cells: CHO-K1
How it was run: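 Activator potency: EC50 from 4-parameter logistic fit of mean Vhalf shift across ten 1-in-3 dilutions starting at 30 μM (n=4), with DMSO (typically 0.3%) control. Currents recorded by leak-subtracted whole-cell clamp of stable CHO-K1 KV7.2/KV7.3 cells, held at −80 mV, stepped −100 to +20 mV then 0 mV tails.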

[2] = target: T2, homomeric KV7.4 channel (KCNQ4) (Homo sapiens, UniProt P56696); assay: Automated patch-clamp (Qube) counter-screening assay against KV7.4 channel; conditions: CHO-K1 cells expressing KV7.4; class by maximal shift in the Vhalf at 30 μM
T2 construct: host or cells: CHO-K1
How it was run: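 EC50 and maximal shift in half-activation voltage come from 4-parameter logistic fits of mean Vhalf shifts. The series had ten 1-in-3 concentrations, highest 30 μM, each tested in quadruplicate. Recordings used automated Qube patch clamp on a stable CHO-K1 line expressing KCNQ4, and selectivity was judged from the 30 μM Vhalf shift.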

[3] = target: T3, heteromeric KV7.3/KV7.5 channel (KCNQ3, KCNQ5) (Homo sapiens, UniProt O43525+Q9NR82); assay: Automated patch-clamp counter-screening against KV7.3/KV7.5 channel; conditions: HEK293 cells expressing Kv7.3/KV7.5; class by maximal shift in the Vhalf at 30 μM
T3 construct: host or cells: HEK293
How it was run: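 Potency came from a 4-parameter logistic fit of mean voltage-of-half-activation shifts, yielding EC50 and maximal shift; selectivity was judged on the shift at 30 μM. Compounds were applied at ten 3-fold dilutions from 30 μM in quadruplicate to HEK293 cells stably carrying Kv7.3 with tet-inducible Kv7.5.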

Compound: O=C(NCc1ccnc(OCC(F)(F)F)c1)N[C@H]1CCCC[C@H]1O [Compound 58, 1-((1S,2R)-2-Hydroxycyclohexyl)-3-((2-(2,2,2-trifluoroethoxy)pyridin-4-yl)methyl) urea]
- EC50 [1]: 10500 nM
- Kv7.2/7.3 ΔV1/2 [1]: 48.9 mV
- Kv7.4 selectivity criteria [2]: B (Non-selective compounds showed Kv7.4 and/or Kv7.3/7.5 ΔV1/2 higher than 15 mV (letter B in table 3))
- Kv7.3/7.5 selectivity criteria [3]: B (Non-selective compounds showed Kv7.4 and/or Kv7.3/7.5 ΔV1/2 higher than 15 mV (letter B in table 3))

Compound: O=C(NCc1ccnc(OCC(F)(F)F)c1)N[C@@H]1CCCC[C@@H]1O [Compound 62, 1-((1R,2S)-2-Hydroxycyclohexyl)-3-((2-(2,2,2-trifluoroethoxy)pyridin-4-yl)methyl) urea]
- EC50 [1]: 11700 nM
- Kv7.2/7.3 ΔV1/2 [1]: 16.94 mV
- Kv7.4 selectivity criteria [2]: A (Selective compounds showed Kv7.4 and/or Kv7.3/7.5 ΔV1/2 equal to or lower than 15 mV (letter A in table 3))
- Kv7.3/7.5 selectivity criteria [3]: B (Non-selective compounds showed Kv7.4 and/or Kv7.3/7.5 ΔV1/2 higher than 15 mV (letter B in table 3))

Compound: O=C(NCc1ccnc(OCC(F)(F)F)c1)N[C@H]1CCCC[C@@H]1O [Compound 63, 1-((1S,2S)-2-Hydroxycyclohexyl)-3-((2-(2,2,2-trifluoroethoxy)pyridin-4-yl)methyl)urea]
- EC50 [1]: 11800 nM
- Kv7.2/7.3 ΔV1/2 [1]: 33.01 mV
- Kv7.4 selectivity criteria [2]: B (Non-selective compounds showed Kv7.4 and/or Kv7.3/7.5 ΔV1/2 higher than 15 mV (letter B in table 3))
- Kv7.3/7.5 selectivity criteria [3]: B (Non-selective compounds showed Kv7.4 and/or Kv7.3/7.5 ΔV1/2 higher than 15 mV (letter B in table 3))

Compound: C[C@@H](NC(=O)NCCC1(C(F)(F)F)CC1)c1ccnc(OCC(F)(F)F)c1 [Compound 65, (R)-1-(1-(2-(2,2,2-Trifluoroethoxy)pyridin-4-yl)ethyl)-3-(2-(1-(trifluoromethyl)cyclopropyl)ethyl)urea]
- EC50 [1]: 152 nM
- Kv7.2/7.3 ΔV1/2 [1]: 26.28 mV
- Kv7.4 selectivity criteria [2]: A (Selective compounds showed Kv7.4 and/or Kv7.3/7.5 ΔV1/2 equal to or lower than 15 mV (letter A in table 3))
- Kv7.3/7.5 selectivity criteria [3]: A (Selective compounds showed Kv7.4 and/or Kv7.3/7.5 ΔV1/2 equal to or lower than 15 mV (letter A in table 3))

Compound: C[C@H](NC(=O)NCCC1(C(F)(F)F)CC1)c1ccnc(OCC(F)(F)F)c1 [Compound 67, (S)-1-(1-(2-(2,2,2-Trifluoroethoxy)pyridin-4-yl)ethyl)-3-(2-(1-(trifluoromethyl)cyclopropyl)ethyl)urea]
- EC50 [1]: 5000 nM
- Kv7.2/7.3 ΔV1/2 [1]: 23.87 mV
- Kv7.4 selectivity criteria [2]: A (Selective compounds showed Kv7.4 and/or Kv7.3/7.5 ΔV1/2 equal to or lower than 15 mV (letter A in table 3))
- Kv7.3/7.5 selectivity criteria [3]: A (Selective compounds showed Kv7.4 and/or Kv7.3/7.5 ΔV1/2 equal to or lower than 15 mV (letter A in table 3))

Compound: CN(CC(F)(F)F)c1cc(CNC(=O)NCCC2(C(F)(F)F)CC2)ccn1 [Compound 68, 1-((2-(Methyl(2,2,2-trifluoroethyl)amino)pyridin-4-yl)methyl)-3-(2-(1-(trifluoromethyl)cyclopropyl)ethyl)urea]
- EC50 [1]: 4730 nM
- Kv7.2/7.3 ΔV1/2 [1]: 27.19 mV
- Kv7.4 selectivity criteria [2]: A (Selective compounds showed Kv7.4 and/or Kv7.3/7.5 ΔV1/2 equal to or lower than 15 mV (letter A in table 3))
- Kv7.3/7.5 selectivity criteria [3]: A (Selective compounds showed Kv7.4 and/or Kv7.3/7.5 ΔV1/2 equal to or lower than 15 mV (letter A in table 3))

Compound: O=C(NCCC1(C(F)(F)F)CC1)NCc1ccnc(C(F)(F)F)c1 [Compound 69, 1-(2-(1-(Trifluoromethyl)cyclopropyl)ethyl)-3-((2-(trifluoromethyl)pyridin-4-yl)methyl)urea]
- EC50 [1]: 4280 nM
- Kv7.2/7.3 ΔV1/2 [1]: 23.15 mV
- Kv7.4 selectivity criteria [2]: A (Selective compounds showed Kv7.4 and/or Kv7.3/7.5 ΔV1/2 equal to or lower than 15 mV (letter A in table 3))
- Kv7.3/7.5 selectivity criteria [3]: A (Selective compounds showed Kv7.4 and/or Kv7.3/7.5 ΔV1/2 equal to or lower than 15 mV (letter A in table 3))

Compound: O=C(NCc1ccnc(OCC(F)(F)F)c1)NCC1CCC(F)(F)CC1 [Compound 70, 1-((4,4-Difluorocyclohexyl)methyl)-3-((2-(2,2,2-trifluoroethoxy)pyridin-4-yl)methyl)urea]
- EC50 [1]: 975 nM
- Kv7.2/7.3 ΔV1/2 [1]: 26.04 mV
- Kv7.4 selectivity criteria [2]: A (Selective compounds showed Kv7.4 and/or Kv7.3/7.5 ΔV1/2 equal to or lower than 15 mV (letter A in table 3))
- Kv7.3/7.5 selectivity criteria [3]: A (Selective compounds showed Kv7.4 and/or Kv7.3/7.5 ΔV1/2 equal to or lower than 15 mV (letter A in table 3))

Compound: O=C(NCc1ccnc(OCC(F)(F)F)c1)NC1CCC(F)(F)CC1 [Compound 71, 1-(4,4-Difluorocyclohexyl)-3-((2-(2,2,2-trifluoroethoxy)pyridin-4-yl)methyl)urea]
- EC50 [1]: 1580 nM
- Kv7.2/7.3 ΔV1/2 [1]: 55.93 mV
- Kv7.4 selectivity criteria [2]: B (Non-selective compounds showed Kv7.4 and/or Kv7.3/7.5 ΔV1/2 higher than 15 mV (letter B in table 3))
- Kv7.3/7.5 selectivity criteria [3]: B (Non-selective compounds showed Kv7.4 and/or Kv7.3/7.5 ΔV1/2 higher than 15 mV (letter B in table 3))

Compound: CC(C)(C)[C@@H](O)CNC(=O)NCc1ccnc(OCC(F)(F)C(F)(F)F)c1 [Compound 73, (R)-1-(2-Hydroxy-3,3-dimethylbutyl)-3-((2-(2,2,3,3,3-pentafluoropropoxy)pyridin-4-yl)methyl)urea]
- EC50 [1]: 2470 nM
- Kv7.2/7.3 ΔV1/2 [1]: 26.35 mV
- Kv7.4 selectivity criteria [2]: A (Selective compounds showed Kv7.4 and/or Kv7.3/7.5 ΔV1/2 equal to or lower than 15 mV (letter A in table 3))
- Kv7.3/7.5 selectivity criteria [3]: A (Selective compounds showed Kv7.4 and/or Kv7.3/7.5 ΔV1/2 equal to or lower than 15 mV (letter A in table 3))

Compound: O=C(NCCC1(C(F)(F)F)CC1)NCc1ccnc(OCCC(F)(F)F)c1 [Compound 74, 1-(2-(1-(Trifluoromethyl)cyclopropyl)ethyl)-3-((2-(3,3,3-trifluoropropoxy)pyridin-4-yl)methyl)urea]
- EC50 [1]: 1780 nM
- Kv7.2/7.3 ΔV1/2 [1]: 26.68 mV
- Kv7.4 selectivity criteria [2]: A (Selective compounds showed Kv7.4 and/or Kv7.3/7.5 ΔV1/2 equal to or lower than 15 mV (letter A in table 3))
- Kv7.3/7.5 selectivity criteria [3]: A (Selective compounds showed Kv7.4 and/or Kv7.3/7.5 ΔV1/2 equal to or lower than 15 mV (letter A in table 3))

Compound: O=C(NCc1ccnc(OCC(F)(F)F)c1)NCc1ccccc1Cl [Compound 75, 1-(2-Chlorobenzyl)-3-((2-(2,2,2-trifluoroethoxy)pyridin-4-yl)methyl)urea]
- EC50 [1]: 508 nM
- Kv7.2/7.3 ΔV1/2 [1]: 25.35 mV
- Kv7.4 selectivity criteria [2]: B (Non-selective compounds showed Kv7.4 and/or Kv7.3/7.5 ΔV1/2 higher than 15 mV (letter B in table 3))
- Kv7.3/7.5 selectivity criteria [3]: A (Selective compounds showed Kv7.4 and/or Kv7.3/7.5 ΔV1/2 equal to or lower than 15 mV (letter A in table 3))

Compound: O=C(NCc1ccnc(OCC(F)(F)F)c1)Nc1cc(F)cc(Cl)c1 [Compound 77, 1-(3-Chloro-5-fluorophenyl)-3-((2-(2,2,2-trifluoroethoxy)pyridin-4-yl)methyl)urea]
- EC50 [1]: 549 nM
- Kv7.2/7.3 ΔV1/2 [1]: 32.37 mV
- Kv7.4 selectivity criteria [2]: B (Non-selective compounds showed Kv7.4 and/or Kv7.3/7.5 ΔV1/2 higher than 15 mV (letter B in table 3))
- Kv7.3/7.5 selectivity criteria [3]: A (Selective compounds showed Kv7.4 and/or Kv7.3/7.5 ΔV1/2 equal to or lower than 15 mV (letter A in table 3))
